Test results: PMC6085350, “Small molecule inhibitors of RAS-effector protein interactions derived using an intracellular antibody fragment” (Nature Communications, 2018)

Experiments:
HRAS^G12V-GppNHp = molecular target: T1, HRAS^G12V-GppNHp (Homo sapiens, UniProt P01112, G12V); assay: SPR binding to HRAS G12V-GppNHp
T1 construct: expression of HRAS (1-166) HRAS^G12V or KRAS^G12V cDNA cloned into the pGEX-2T vector; made in house; host or cells: E. coli C41(DE3)
Description: A BIAcore T100 (GE Healthcare) was used to screen the fragment library for RAS binders. A polyclonal goat anti-GST antibody (GE Healthcare) was immobilized on a CM5 sensor chip (GE Healthcare) by the amine coupling method. To immobilize the antibody on CM5 chip, the chip was first activated by injecting 100 µl mixture of 0.2 M EDC (N-ethyl-N-(dimethylaminopropyl) carbodiimide hydrochloride) and 0.05 M NHS (N-hydroxysuccinimide) at 10 µl/min flow rate. Furthermore, 100 µg/ml anti-GST antibody in 10 mM sodium acetate, pH 5.0 was injected at 5 µl/min for 900 s and immobilized until 20,000 ~ 25,000 RU. After immobilization the chip was immediately inactivated by injecting 1 M ethanolamine, pH 8.5 at 10 µl/min for 600 s. The chip was kept running in the HBS buffer (GE Healthcare) comprising 10 mM HEPES, […], 150 mM NaCl. […] Before fragment library screening, the running buffer was replaced by 20 mM Tris, pH 8, 150 mM NaCl, 5 mM MgCl2, 5% DMSO. DMSO solvent correction curves were generated by injecting the running buffers with serial concentrations of DMSO ranging from 4.5 to 6%. For fragment screening, each compound was diluted at 200 µM or 1 mM, 5% DMSO in 20 mM Tris, pH 8, 150 mM NaCl, 5 mM MgCl2 buffer in a polypropylene 96 well plate. The individual compounds were injected at 30 µl for 60 s at 30 µl/min flow rate over flow cells Fc1, Fc2, Fc3 and Fc4. […]

[1] = system: AKT phosphorylation (Ser473) in H358 cells (KRAS^G12C); assay: Biomarker phosphorylation assay, pAKT, H358; type: cell-based, human; conditions: EGF 10 min
Description: (§1) Fig. 5 Abd-7 results on RAS-dependent signalling pathways and cell viability. a, b DLD-1 (a) or H358 (b) cells were serum-starved for 24 h, incubated in mono-layer with Abd-7 in a range from 2, 5, 10 and 20 μM for 3 h and stimulated with EGF 10 min. Proteins were extracted and separated by SDS-PAGE and transferred to membranes for Western analysis with anti-pAKT, anti-pERK, anti-pan AKT and anti-pan ERK. Anti-cyclophilin B antibody was the loading control. Signal was developed using standard ECL. c–e Effects of compounds Abd-2, Abd-4, Abd-5, Abd-6, and Abd-7 on the viability of human cancer cells lines was assessed for a 2-D culture of DLD-1 (mutant KRAS^G13D) cells and HT1080 cells (mutant NRAS^Q61K). The cells were treated with a dose range from 0 μM to 20 μ and incubated for 72 h when cell viability was assessed using CellTitreGlo. […] Each experiment was repeated at least three times (a, b) and four times (c, d). Where error bars are presented, they correspond to mean values ± SD of biological repeats
A total of 450,000 DLD1 or 640,000 H358 cells were seeded per well of a six well plate. Approximately, 20 h later, the medium was removed, the cells washed twice with PBS and DMEM without FBS was added and left for 24 h. The medium was removed and 2 ml of DMEM no FBS was added with the appropriate concentration of compound (DMSO, 2, 5, 10 or 20 μM) for 3 h. Cells were stimulated with EGF (50 ng/ml) for 10 min, washed once with PBS and directly lysed in SDS-Tris buffer (1% SDS, 10 mM Tris-HCl pH 7.4) supplemented with protease inhibitors (Sigma) and phosphatase inhibitors (Thermo-Fisher). Cell lysates were sonicated with a Branson Sonifier and the protein concentrations determined by using the Pierce BCA protein assay kit (Thermo-Fisher). Furthermore, 10 μg of protein were resolved on 10 or 12.5% SDS-PAGE and subsequently transferred onto a PVDF membrane (GE). The membrane was blocked (with 10% non-fat milk (Sigma) or 10% BSA (Sigma) in TBS-0.1% Tween20) and incubated overnight with primary antibody at 4 °C. […]

[2] = system: ERK1/2 phosphorylation in H358 cells (KRAS^G12C); assay: Biomarker phosphorylation assay, pERK, H358; type: cell-based, human; conditions: H358, 2-20 μM, 3 h, EGF 10 min
Description: as §1
A total of 450,000 DLD1 or 640,000 H358 cells were seeded per well of a six well plate. Approximately, 20 h later, the medium was removed, the cells washed twice with PBS and DMEM without FBS was added and left for 24 h. […] Cell lysates were sonicated with a Branson Sonifier and the protein concentrations determined by using the Pierce BCA protein assay kit (Thermo-Fisher). […]

PI3KC2 = assay: Kinase panel (KinaseProfiler), second PI3KC2 line; type: biochemical, human; conditions: PI3KC2 (second of two lines), 10μM
Description: Experiments were performed by Eurofins Pharma Discovery Services. The KinaseProfiler™ assay protocol guide can be downloaded from their website: www.eurofins.com/discoveryservices. The guide contains information on the buffer conditions, substrate and reference inhibitor blank used for each kinase.
Supplementary Table 3. Assessment of potential interaction of Abd-7 with a human kinase
Kinase % kinase activity in
A panel of 14 Kinases (relevant to the RAS pathway) has been screened against Abd-7
(10μM) and the kinase activity was measured. […] of activity was observe for all
function of the selected and RAS relevant kinase proteins.

T1 sequence (P01112 1-166 G12V): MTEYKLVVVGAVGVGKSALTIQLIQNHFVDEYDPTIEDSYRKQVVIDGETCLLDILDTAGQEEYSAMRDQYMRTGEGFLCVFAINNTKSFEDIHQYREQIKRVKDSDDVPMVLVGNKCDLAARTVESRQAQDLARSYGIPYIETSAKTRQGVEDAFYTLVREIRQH

binding to^G12V-GppNHp (SPR) (HRAS^G12V-GppNHp)	% kinase activity in the presence of Abd-7 (PI3KC2)	Compound	inhibition of AKT phosphorylation ([1]; H358, 20 μM, 3 h)	concentration at which inhibition of AKT phosphorylation initiates ([1]; H358, starved 24 h, 3 h compound, Western)	inhibition at 10 µM ([1]; Homo sapiens, NCI-H358, H358, 10 μM, 3 h)	inhibition of ERK1/2 phosphorylation [2]
binds		O=C(NCC1COc2ccccc2O1)c1ccco1 (stereo not drawn) [Abd-2]				
	108%	COc1nc(-c2cccc3c2OCCO3)ccc1Nc1ccc(CN(C)C)cc1 [Abd-7]	complete inhibition	2 µM	> 50%	diminution of pERK levels
